Data: patent US8613914B2, “Peptidomimetic sulfamide compounds and antiviral uses thereof” (Novartis AG, priority 2009, dated 2013)

target: HCV NS3-4A serine protease (full-length NS3-4A protein) (Hepatitis C virus genotype 1a (isolate 1) (HCV), UniProt P26664); experiment: HCV NS3-4A protease assay; type: biochemical, HCV genotype 1a; settings: strain HCV-1, fluorogenic peptide substrate, read-out: Protease assay Ex. 12 IC50
Protocol: The inhibitory activity of certain compounds of Table A against HCV NS3-4A serine protease is determined in a homogenous assay using the full-length NS3-4A protein (genotype 1a, strain HCV-1) and a commercially available internally-quenched fluorogenic peptide substrate as described by Taliani, M., et al. 1996 Anal. Biochem. 240:60-67, which is incorporated by reference in its entirety.

Sequence of HCV NS3-4A serine protease (full-length NS3-4A protein) (P26664 1027-1657): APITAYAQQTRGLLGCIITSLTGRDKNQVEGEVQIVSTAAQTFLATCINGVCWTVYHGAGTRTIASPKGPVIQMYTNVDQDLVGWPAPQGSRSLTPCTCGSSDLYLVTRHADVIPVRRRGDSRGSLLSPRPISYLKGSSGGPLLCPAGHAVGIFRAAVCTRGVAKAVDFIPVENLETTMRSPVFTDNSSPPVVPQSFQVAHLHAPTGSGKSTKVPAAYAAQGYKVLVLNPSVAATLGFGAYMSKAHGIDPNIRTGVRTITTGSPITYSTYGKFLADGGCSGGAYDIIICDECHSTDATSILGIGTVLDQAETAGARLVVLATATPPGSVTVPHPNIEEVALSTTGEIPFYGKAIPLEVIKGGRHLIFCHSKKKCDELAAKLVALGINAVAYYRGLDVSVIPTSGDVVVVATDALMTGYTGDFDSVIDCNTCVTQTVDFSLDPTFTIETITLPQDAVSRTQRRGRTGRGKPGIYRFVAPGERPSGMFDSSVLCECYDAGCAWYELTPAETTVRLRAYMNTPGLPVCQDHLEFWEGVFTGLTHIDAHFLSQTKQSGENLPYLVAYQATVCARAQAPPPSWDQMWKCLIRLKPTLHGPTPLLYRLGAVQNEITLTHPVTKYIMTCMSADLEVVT
Sequence of HCV NS3-4A serine protease (full-length NS3-4A protein) (P26664 1658-1711 partner): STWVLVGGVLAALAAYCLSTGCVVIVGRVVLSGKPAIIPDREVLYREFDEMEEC

Row | Compound | IC50 [nM]
1 | C=C[C@@H]1C[C@]1(NC(=O)[C@@H]1C[C@@]2(CN1C(=O)[C@@H](NC(=O)[C@@H](NC(=O)[C@@H]1CCCCN1C(C)C)C(C)(C)C)C1(C)CCOCC1)C(C)(C)C21CCC1)C(=O)NS(=O)(=O)N1CCCC1 [Compound 128, (5R,8S)-7-[(2S)-2-[(N-{[(2S)-1-isopropylpiperidin-2-yl]carbonyl}-3-methyl-L-valyl)amino]-2-(4-methyltetrahydro-2H-pyran-4-yl)acetyl]-10,10-dimethyl-N-{(1R,2S)-1-[(pyrrolidin-1-ylsulfonyl)carbamoyl]-2-vinylcyclopropyl}-7-azadispiro[3.0.4.1]decane-8-carboxamide] | 1.4
2 | C=C[C@@H]1C[C@]1(NC(=O)[C@@H]1C[C@@]2(CN1C(=O)[C@@H](NC(=O)[C@@H](NC(=O)[C@@H]1CCCCN1C(C)C)C1CCCCC1)C1CCCCC1)C(C)(C)C21CCC1)C(=O)NS(=O)(=O)N1CCCC1 [Compound 35, (5R,8S)-7-[(2S)-2-cyclohexyl-2-{[(2S)-2-cyclohexyl-2-({[(2S)-1-isopropylpiperidin-2-yl]carbonyl}amino)acetyl]amino}acetyl]-10,10-dimethyl-N-{(1R,2S)-1-[(pyrrolidin-1-ylsulfonyl)carbamoyl]-2-vinylcyclopropyl}-7-azadispiro[3.0.4.1]decane-8-carboxamide] | 3
3 | C=C[C@@H]1C[C@]1(NC(=O)[C@@H]1C[C@@]2(CN1C(=O)[C@@H](NC(=O)[C@@H](N1CCCC1=O)C(C)(C)C)C(C)(C)C)C(C)(C)C21CCC1)C(=O)NS(=O)(=O)N1CCCC1 [Compound 9, (5R,8S)-7-[(2S)-2-{[(2S)-3,3-dimethyl-2-(2-oxopyrrolidin-1-yl)butanoyl]amino}-3,3-dimethylbutanoyl]-10,10-dimethyl-N-{(1R,2S)-1-[(pyrrolidin-1-ylsulfonyl)carbamoyl]-2-vinylcyclopropyl}-7-azadispiro[3.0.4.1]decane-8-carboxamide] | 100
4 | C=C[C@@H]1C[C@]1(NC(=O)[C@@H]1C[C@@]2(CN1C(=O)[C@@H](NC(=O)[C@@H](NC(=O)[C@@H]1CCCCN1C(C)C)C1CCCCC1)C(C)(C)C)C(C)(C)C21CCC1)C(=O)NS(=O)(=O)N1CC[C@@H](F)C1 [Compound 45, (5R,8S)-7-[(2S)-2-{[(2S)-2-cyclohexyl-2-({[(2S)-1-isopropylpiperidin-2-yl]carbonyl}amino)acetyl]amino}-3,3-dimethylbutanoyl]-N-[(1R,2S)-1-({[(3R)-3-fluoropyrrolidin-1-yl]sulfonyl}carbamoyl)-2-vinylcyclopropyl]-10,10-dimethyl-7-azadispiro[3.0.4.1]decane-8-carboxamide] | 1
5 | [2H]C([2H])([2H])C([2H])([2H])N(C([2H])([2H])C([2H])([2H])[2H])S(=O)(=O)NC(=O)[C@@]1(NC(=O)[C@@H]2C[C@@]3(CN2C(=O)[C@@H](NC(=O)[C@@H](NC(=O)[C@@H]2CCCCN2C(C)C)C2CCCCC2)C(C)(C)C)C(C)(C)C32CCC2)C[C@H]1C=C [Compound 149, (5R,8S)-7-[(2S)-2-{[(2S)-2-cyclohexyl-2-({[(2S)-1-isopropylpiperidin-2-yl]carbonyl}amino)acetyl]amino}-3,3-dimethylbutanoyl]-N-[(1R,2S)-1-{[(d10-diethylamino)sulfonyl]carbamoyl}-2-vinylcyclopropyl]-10,10-dimethyl-7-azadispiro[3.0.4.1]decane-8-carboxamide-d10] | 1.5
6 | C=C[C@@H]1C[C@]1(NC(=O)[C@@H]1C[C@@]2(CN1C(=O)[C@@H](NC(=O)[C@@H](NC(=O)C1CN(C(C)C)C1)C1CCCCC1)C(C)(C)C)C(C)(C)C21CCC1)C(=O)NS(=O)(=O)N1CCCC1 [Compound 19, (5R,8S)-7-[(2S)-2-{[(2S)-2-cyclohexyl-2-{[(1-isopropylazetidin-3-yl)carbonyl]amino}acetyl]amino}-3,3-dimethylbutanoyl]-10,10-dimethyl-N-{(1R,2S)-1-[(pyrrolidin-1-ylsulfonyl)carbamoyl]-2-vinylcyclopropyl}-7-azadispiro[3.0.4.1]decane-8-carboxamide] | 55
7 | C=C[C@@H]1C[C@]1(NC(=O)[C@@H]1C[C@@]2(CN1C(=O)[C@@H](NC(=O)[C@@H](NC(=O)CC1CCCCO1)C1CCCCC1)C(C)(C)C)C(C)(C)C21CCC1)C(=O)NS(=O)(=O)N1CCCC1 (stereo partly drawn) [Compound 179, (5R,8S)-7-[(2S)-2-({cyclohexyl[(tetrahydro-2H-pyran-2-ylacetyl)amino]acetyl}amino)-3,3-dimethylbutanoyl]-10,10-dimethyl-N-{(1R,2S)-1-[(pyrrolidin-1-ylsulfonyl)carbamoyl]-2-vinylcyclopropyl}-7-azadispiro[3.0.4.1]decane-8-carboxamide] | 25
8 | C=C[C@@H]1C[C@]1(NC(=O)[C@@H]1C[C@@]2(CN1C(=O)[C@@H](NC(=O)[C@@H](NC(=O)c1cnccn1)C1CCCCC1)C1CCOCC1)C(C)(C)C21CCC1)C(=O)NS(=O)(=O)N1CCCC1 [Compound 42, (5R,8S)-7-[(2S)-2-({(2S)-2-cyclohexyl-2-[(pyrazin-2-ylcarbonyl)amino]acetyl}amino)-2-(tetrahydro-2H-pyran-4-yl)acetyl]-10,10-dimethyl-N-{(1R,2S)-1-[(pyrrolidin-1-ylsulfonyl)carbamoyl]-2-vinylcyclopropyl}-7-azadispiro[3.0.4.1]decane-8-carboxamide] | 40
9 | C=C[C@@H]1C[C@]1(NC(=O)[C@@H]1C[C@@]2(CN1C(=O)[C@@H](NC(=O)[C@@H](NC(=O)[C@@H]1CCCN1CC)C1CCCC1)C(C)(C)C)C(C)(C)C21CCC1)C(=O)NS(=O)(=O)N(CC)CC [Compound 97, (5R,8S)-7-[(2S)-2-{[(2S)-2-cyclopentyl-2-({[(2S)-1-ethylpyrrolidin-2-yl]carbonyl}amino)acetyl]amino}-3,3-dimethylbutanoyl]-N-[(1R,2S)-1-{[(diethylamino)sulfonyl]carbamoyl}-2-vinylcyclopropyl]-10,10-dimethyl-7-azadispiro[3.0.4.1]decane-8-carboxamide] | 10
10 | C=C[C@@H]1C[C@]1(NC(=O)[C@@H]1C[C@@]2(CN1C(=O)[C@@H](NC(=O)[C@@H](NC(=O)[C@@H]1CCCCN1C(C)C)C1CCCCC1)C(C)(C)C)C(C)(C)C21CCC1)C(=O)NS(=O)(=O)N(CC)CC(F)F [Compound 155, (5R,8S)-7-[(2S)-2-{[(2S)-2-cyclohexyl-2-({[(2S)-1-isopropylpiperidin-2-yl]carbonyl}amino)acetyl]amino}-3,3-dimethylbutanoyl]-N-[(1R,2S)-1-({[(2,2-difluoroethyl)(ethyl)amino]sulfonyl}carbamoyl)-2-vinylcyclopropyl]-10,10-dimethyl-7-azadispiro[3.0.4.1]decane-8-carboxamide] | 4.4
11 | CC[C@@H]1C[C@]1(NC(=O)[C@@H]1C[C@@]2(CN1C(=O)[C@@H](NC(=O)[C@@H](NC(=O)[C@@H]1CCCCN1CC)C1CCCCC1)C(C)(C)C)C(C)(C)C21CCC1)C(=O)NS(=O)(=O)N(CC)CC [Compound 86, (5R,8S)-7-[(2S)-2-{[(2S)-2-cyclohexyl-2-({[(2S)-1-ethylpiperidin-2-yl]carbonyl}amino)acetyl]amino}-3,3-dimethylbutanoyl]-N-[(1R,2R)-1-{[(diethylamino)sulfonyl]carbamoyl}-2-ethylcyclopropyl]-10,10-dimethyl-7-azadispiro[3.0.4.1]decane-8-carboxamide] | 4.5
12 | CC[C@@H]1C[C@]1(NC(=O)[C@@H]1C[C@@]2(CN1C(=O)[C@@H](NC(=O)[C@@H](NC(=O)[C@@H]1CCCN1C(C)C)C1CCCCC1)C(C)(C)C)C(C)(C)C21CCC1)C(=O)NS(=O)(=O)N1CCCC1 [Compound 116, (5R,8S)-7-[(2S)-2-{[(2S)-2-cyclohexyl-2-({[(2S)-1-isopropylpyrrolidin-2-yl]carbonyl}amino)acetyl]amino}-3,3-dimethylbutanoyl]-N-{(1R,2R)-2-ethyl-1-[(pyrrolidin-1-ylsulfonyl)carbamoyl]cyclopropyl}-10,10-dimethyl-7-azadispiro[3.0.4.1]decane-8-carboxamide] | 4.5
13 | C=C[C@@H]1C[C@]1(NC(=O)[C@@H]1C[C@@]2(CN1C(=O)[C@@H](NC(=O)[C@@H](NC(=O)[C@H]1CCCN1C(C)C)C(C)(C)C)C(C)(C)C)C(C)(C)C21CCC1)C(=O)NS(=O)(=O)N1CCCC1 [Compound 21, (5R,8S)-7-[(2S)-2-{[(2S)-2-({[(2R)-1-isopropylpyrrolidin-2-yl]carbonyl}amino)-3,3-dimethylbutanoyl]amino}-3,3-dimethylbutanoyl]-10,10-dimethyl-N-{(1R,2S)-1-[(pyrrolidin-1-ylsulfonyl)carbamoyl]-2-vinylcyclopropyl}-7-azadispiro[3.0.4.1]decane-8-carboxamide] | 35
14 | C=C[C@@H]1C[C@]1(NC(=O)[C@@H]1C[C@@]2(CN1C(=O)[C@@H](NC(=O)[C@@H](NC(=O)[C@@H]1CCCCN1CC)c1ccccc1)C(C)(C)C)C(C)(C)C21CCC1)C(=O)NS(=O)(=O)N1CCCC1 [Compound 103, (5R,8S)-7-[(2S)-2-{[(2S)-2-({[(2S)-1-ethylpiperidin-2-yl]carbonyl}amino)-2-phenylacetyl]amino}-3,3-dimethylbutanoyl]-10,10-dimethyl-N-{(1R,2S)-1-[(pyrrolidin-1-ylsulfonyl)carbamoyl]-2-vinylcyclopropyl}-7-azadispiro[3.0.4.1]decane-8-carboxamide] | 20
15 | C=C[C@@H]1C[C@]1(NC(=O)[C@@H]1C[C@@]2(CN1C(=O)[C@@H](NC(=O)[C@@H](NC(=O)CN1CCN(C)CC1)C1CCCCC1)C(C)(C)C)C(C)(C)C21CCC1)C(=O)NS(=O)(=O)N1CCCC1 [Compound 202, (5R,8S)-7-{(2S)-2-[(cyclohexyl{[(4-methylpiperazin-1-yl)acetyl]amino}acetyl)amino]-3,3-dimethylbutanoyl}-10,10-dimethyl-N-{(1R,2S)-1-[(pyrrolidin-1-ylsulfonyl)carbamoyl]-2-vinylcyclopropyl}-7-azadispiro[3.0.4.1]decane-8-carboxamide] | 20
